Reference: patent publication US20240009204A1 (Starton Therapeutics, Inc., priority 2020, published 2024)
Marks after values point to notes of the source that are not given here.

Legend:
[1] = test system: healthy female volunteers; assay: Phase 1 study: antiemetic effect of oral olanzapine doses after apomorphine challenge; assay type: in vivo, human; settings: for Nausea Score 1-120 min. / Nausea Score 1-120 min. (severity in words) / Retching (incidence) / Vomiting (incidence): apomorphine challenge day 8; for Nausea Score 1-120 min.: 1=no nausea, 10=severe nausea
Protocol: Twenty-four healthy female volunteers were enrolled. Four active-treatment groups and a cohort of placebo-treated subjects were evaluated.
Subjects were administered study drug once daily for 8 days. During this period, subjects maintained a study diary of their side effects. The subject diary was used to collect on a daily basis any adverse events including an assessment of the presence and/or intensity of sedation on a numeric scale where 1=no sedation and 10=excessive sedation.
On the 8th day, subjects were administered apomorphine at a dose of 0.05 mg/kg and assessed over 6 hours. During this period, subjects were asked to record episodes of nausea on a numeric scale every 15 minutes for the duration of assessment. The intensity of nausea was captured using a 1-10 rating scale where 1=no nausea and 10=severe nausea. Emesis intensity was also captured where 1=no emesis and 10=severe emesis. Episodes of retching or emesis were collected and measured for the absolute number of retches or vomits during the collection period and documented for the time of the specific event following the administration of the apomorphine.

clinical = settings: human, plasma, po
[2] = oral, statistical integration of nausea scores and incidence of retching and vomiting

SMILES: Cc1cc2c(s1)Nc1ccccc1N=C2N1CCN(C)CC1 [olanzapine, 2-methyl-10-(4-methyl-1-piperazinyl)-4H-thieno-[2,3-b][1.5]benzo-diazepine]
- Nausea severity scores 0-120 min following apomorphine challenge, versus placebo ([1]; 2 mg and 8 mg doses): not significantly different than placebo
- Nausea severity scores 0-120 min following apomorphine challenge, versus placebo ([1]; 4 mg and 6 mg steady state doses, p<0.05): significantly different than placebo
- maximum intensity of nausea, compared between doses ([1]; between the 4 mg, 6 mg and 8 mg dose): no different
- Nausea Score 1-120 min. ([1]; oral 2 mg a day for 8 days): 6**
- Nausea Score 1-120 min. (severity in words) ([1]; oral 2 mg a day): Moderate
- Retching (incidence) ([1]; oral 2 mg a day): 40%
- Vomiting (incidence) ([1]; oral 2 mg a day): 40%
- Nausea Score 1-120 min. ([1]; oral 4 mg a day for 8 days): 3.4 #
- Nausea Score 1-120 min. (severity in words) ([1]; oral 4 mg a day): Mild
- Retching (incidence) ([1]; oral 4 mg a day): 0%
- Vomiting (incidence) ([1]; oral 4 mg a day): 20%
- Nausea Score 1-120 min. ([1]; oral 6 mg a day for 8 days): 3.7 #
- Nausea Score 1-120 min. (severity in words) ([1]; oral 6 mg a day): Mild
- Retching (incidence) ([1]; oral 6 mg a day): 0%
- Vomiting (incidence) ([1]; oral 6 mg a day): 0%
- Nausea Score 1-120 min. ([1]; oral 8 mg a day for 8 days): 5**
- Nausea Score 1-120 min. (severity in words) ([1]; oral 8 mg a day): Mild
- Retching (incidence) ([1]; oral 8 mg a day): 20%
- Vomiting (incidence) ([1]; oral 8 mg a day): 20%
- minimum effective dose for nausea [1, 2]: 4 mg a day
- optimal dose for nausea and vomiting [1, 2]: 6 mg a day
- Cmax at 1 day (clinical; 4 mg): 4 to 6 ng/mL
- Cmax at 1 day (clinical; 6 mg): 6 to 9 ng/mL
